Results: patent US20260365653A1, “IRREVERSIBLE MUTEGFR INHIBITORS” (Bayer Aktiengesellschaft, priority 2022, published 2026)

Columns and labels:
BA/F3 (insSVD) cells = assay: Ba/F3-EGFR-insSVD cell survival assay (Cell Titer-Glo); assay type: cell-based; conditions: Mus musculus, BaF3, 48 h, Table 3a, cell survival, Cell Titer-Glo, with 10 ng/ml EGF, without IL-3
Procedure, shortened: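 CellTiter-Glo luminescence read after 48 h compound exposure at 37° C. Cells: IL-3-independent Ba/F3 lines transduced with EGFR-insSVD or EGFR-insSVD T790M, maintained on 10 ng/ml EGF and seeded at 4000 per well.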

[1] = target: T1, mutEGFR (D770_N771insSVD) (Homo sapiens, UniProt P00533, DUP768-770); assay: Exon20-Mutant-EGFR (D770_N771insSVD) kinase assay (TR-FRET); assay type: biochemical; conditions: mutEGFR (D770_N771insSVD) kinase assay IC50, Table 2a; D770_N771insSVD; 2 mM ATP
T1 construct: GST-EGFR #3 (SVD between D770 and N771); made in house; host or cells: Sf9 insect cells (baculovirus)
T1 sequence (P00533 with tags, fused parts or gaps DUP768-770): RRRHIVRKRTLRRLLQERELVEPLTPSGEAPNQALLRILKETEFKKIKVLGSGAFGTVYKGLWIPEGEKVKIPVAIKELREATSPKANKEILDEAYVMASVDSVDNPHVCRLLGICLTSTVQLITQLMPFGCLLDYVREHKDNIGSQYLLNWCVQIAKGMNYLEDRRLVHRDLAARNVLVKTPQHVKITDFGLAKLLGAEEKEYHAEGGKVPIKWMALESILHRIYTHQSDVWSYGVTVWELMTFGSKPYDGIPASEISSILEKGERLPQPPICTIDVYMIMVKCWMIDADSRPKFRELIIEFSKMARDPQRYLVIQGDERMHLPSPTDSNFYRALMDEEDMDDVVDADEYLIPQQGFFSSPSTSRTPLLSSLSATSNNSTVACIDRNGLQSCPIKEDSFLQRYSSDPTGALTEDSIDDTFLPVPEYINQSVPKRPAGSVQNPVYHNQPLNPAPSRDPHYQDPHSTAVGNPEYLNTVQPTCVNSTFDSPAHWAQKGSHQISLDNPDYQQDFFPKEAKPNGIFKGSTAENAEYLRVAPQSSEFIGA

[2] = target: T2, mutEGFR (D770_N771insNPG, T790) (Homo sapiens, UniProt P00533, INS770NPG/T790M); assay: mutEGFR (D770_N771insNPG, T790) kinase assay; assay type: biochemical; conditions: Table 2a, D770_N771insNPG
T2 construct: exact insNPG construct not described; in-house EGFR proteins were N-terminal GST fusions from baculovirus/insect cells (borders R669-A1210 given only for WT, insSVD, insASV)
T2 sequence (P00533 with tags, fused parts or gaps INS770NPG/T790M limits assumed): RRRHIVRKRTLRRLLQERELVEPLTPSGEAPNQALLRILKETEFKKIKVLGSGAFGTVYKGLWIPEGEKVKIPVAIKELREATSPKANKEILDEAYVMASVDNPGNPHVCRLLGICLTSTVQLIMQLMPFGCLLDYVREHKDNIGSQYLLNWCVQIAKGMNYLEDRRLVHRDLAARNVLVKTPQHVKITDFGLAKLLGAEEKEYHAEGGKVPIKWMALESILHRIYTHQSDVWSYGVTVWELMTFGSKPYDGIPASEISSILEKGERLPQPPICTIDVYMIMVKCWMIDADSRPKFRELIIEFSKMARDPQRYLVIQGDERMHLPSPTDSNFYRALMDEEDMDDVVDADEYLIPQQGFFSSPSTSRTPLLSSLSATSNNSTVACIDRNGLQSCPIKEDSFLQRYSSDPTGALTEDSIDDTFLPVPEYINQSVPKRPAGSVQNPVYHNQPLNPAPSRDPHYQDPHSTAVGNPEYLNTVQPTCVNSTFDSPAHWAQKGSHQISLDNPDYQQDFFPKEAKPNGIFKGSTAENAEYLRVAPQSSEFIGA
Source text: The different EGFR proteins used in the biochemical kinase activity inhibition assays were generated inhouse by expression in insect cells using Baculo Virus system and subsequent purification as described in the following paragraphs.
The cDNAs encoding the various protein sequences from human EGFR human (P00533) were optimized for expression in eukaryotic cells and synthesized by the GeneArt Technology at Life Technologies.

SMILES	IC50 (BA/F3 (insSVD) cells) [µM]	IC50 [1] [µM]	IC50 [2] [µM]
Cc1c[nH]c2nccc(-c3c(-c4cccc5ccoc45)nn4c3CN(C(=O)/C=C/CN(C)C)CC4)c12 [Example 186, (2E)-1-[2-(1-benzofuran-7-yl)-3-(3-methyl-1H-pyrrolo[2,3-b]pyridin-4-yl)-6,7-dihydropyrazolo[1,5-a]pyrazin-5(4H)-yl]-4-(dimethylamino)but-2-en-1-one formic acid (1:1)]	0.557	0.21	0.129
C=CC(=O)N1CCn2nc(-c3ccc(C(F)(F)F)nc3)c(-c3ccncc3)c2C1 [Example 188, 1-[3-(pyridin-4-yl)-2-[6-(trifluoromethyl)pyridin-3-yl]-6,7-dihydropyrazolo[1,5-a]pyrazin-5(4H)-yl]prop-2-en-1-one]	0.149	0.155	0.0112
C=CC(=O)N1CCn2nc(-c3ccccc3)c(-c3ccncc3)c2C1 [Example 189, 1-[2-phenyl-3-(pyridin-4-yl)-6,7-dihydropyrazolo[1,5-a]pyrazin-5(4H)-yl]prop-2-en-1-one]	0.0223	0.00102	0.00174
C=CC(=O)N1CCn2nc(-c3ccc(Cl)c(CC)c3)c(-c3ccncc3)c2C1 [Example 190, 1-[2-(4-chloro-3-ethylphenyl)-3-(pyridin-4-yl)-6,7-dihydropyrazolo[1,5-a]pyrazin-5(4H)-yl]prop-2-en-1-one]	0.172	0.00103	0.00303
C=CC(=O)N1CCn2nc(-c3ccc(Cl)cc3CO)c(-c3ccncc3)c2C1 [Example 191, 1-{2-[4-chloro-2-(hydroxymethyl)phenyl]-3-(pyridin-4-yl)-6,7-dihydropyrazolo[1,5-a]pyrazin-5(4H)-yl}prop-2-en-1-one]	0.0329	0.000626	0.00126
C=CC(=O)N1CCn2nc(-c3ccc4[nH]ccc4c3)c(-c3ccncc3)c2C1 [Example 193, 1-[2-(1H-indol-5-yl)-3-(pyridin-4-yl)-6,7-dihydropyrazolo[1,5-a]pyrazin-5(4H)-yl]prop-2-en-1-one]	0.0456	0.000831	0.00285
C=CC(=O)N1CCn2nc(-c3ccc4occc4c3)c(-c3ccncc3)c2C1 [Example 194, 1-[2-(1-benzofuran-5-yl)-3-(pyridin-4-yl)-6,7-dihydropyrazolo[1,5-a]pyrazin-5(4H)-yl]prop-2-en-1-one]	0.0153	0.000144	0.000399
CN(C)C/C=C/C(=O)N1CCn2nc(-c3ccc4sccc4c3)c(-c3ccncc3)c2C1 [Example 196, (2E)-1-[2-(1-benzothiophen-5-yl)-3-(pyridin-4-yl)-6,7-dihydropyrazolo[1,5-a]pyrazin-5(4H)-yl]-4-(dimethylamino)but-2-en-1-one]	0.0404	0.000183	0.000421
CN(C)C/C=C/C(=O)N1CCn2nc(-c3ccc4[nH]ccc4c3)c(-c3ccncc3)c2C1 [Example 197, (2E)-4-(dimethylamino)-1-[2-(1H-indol-5-yl)-3-(pyridin-4-yl)-6,7-dihydropyrazolo[1,5-a]pyrazin-5(4H)-yl]but-2-en-1-one]	0.995	0.00145	0.00801
CN(C)C/C=C/C(=O)N1CCn2nc(-c3ccc4nn[nH]c4c3)c(-c3ccncc3)c2C1 [Example 198, (2E)-1-[2-(1H-benzotriazol-6-yl)-3-(pyridin-4-yl)-6,7-dihydropyrazolo[1,5-a]pyrazin-5(4H)-yl]-4-(dimethylamino)but-2-en-1-one]	6.39	0.476	1.07
CN(C)C/C=C/C(=O)N1CCn2nc(-c3ccc4occc4c3)c(-c3ccncc3)c2C1 [Example 199, (2E)-1-[2-(1-benzofuran-5-yl)-3-(pyridin-4-yl)-6,7-dihydropyrazolo[1,5-a]pyrazin-5(4H)-yl]-4-(dimethylamino)but-2-en-1-one]	0.132	0.000672	0.00205
CN(C)C/C=C/C(=O)N1CCn2nc(-c3ccc4cc[nH]c4c3)c(-c3ccncc3)c2C1 [Example 200, (2E)-4-(dimethylamino)-1-[2-(1H-indol-6-yl)-3-(pyridin-4-yl)-6,7-dihydropyrazolo[1,5-a]pyrazin-5(4H)-yl]but-2-en-1-one]	0.069	0.000161	0.000317
C=CC(=O)N1Cc2c(-c3ccncc3)c(-c3ccc(F)cc3)nn2C(C)(C)C1 [Example 207, 1-[2-(4-fluorophenyl)-7,7-dimethyl-3-(pyridin-4-yl)-6,7-dihydropyrazolo[1,5-a]pyrazin-5(4H)-yl]prop-2-en-1-one]	0.0246	0.000644	0.00222
C=CC(=O)N1Cc2c(-c3ccncc3)c(-c3ccc(Cl)c(C)c3)nn2C(C)(C)C1 [Example 208, 1-[2-(4-chloro-3-methylphenyl)-7,7-dimethyl-3-(pyridin-4-yl)-6,7-dihydropyrazolo[1,5-a]pyrazin-5(4H)-yl]prop-2-en-1-one]	0.0158	0.00014	0.000365
C=CC(=O)N1Cc2c(-c3ccncc3)c(-c3ccc(Cl)cc3)nn2C(C)(C)C1 [Example 209, 1-[2-(4-chlorophenyl)-7,7-dimethyl-3-(pyridin-4-yl)-6,7-dihydropyrazolo[1,5-a]pyrazin-5(4H)-yl]prop-2-en-1-one]	0.00815	0.000226	0.000694
C=CC(=O)N1Cc2c(-c3ccncc3)c(-c3ccc(F)cc3)nn2CC1(C)C [Example 210, 1-[2-(4-fluorophenyl)-6,6-dimethyl-3-(pyridin-4-yl)-6,7-dihydropyrazolo[1,5-a]pyrazin-5(4H)-yl]prop-2-en-1-one]	0.551	0.0259	0.0604
C=CC(=O)N1Cc2c(-c3ccncc3)c(-c3ccc(Cl)cc3)nn2CC1(C)C [Example 211, 1-[2-(4-chlorophenyl)-6,6-dimethyl-3-(pyridin-4-yl)-6,7-dihydropyrazolo[1,5-a]pyrazin-5(4H)-yl]prop-2-en-1-one]	0.378	0.0125	0.0405
C=CC(=O)N1Cc2c(-c3ccncc3)c(-c3ccc(Cl)c(C)c3)nn2CC1(C)C [Example 212, 1-[2-(4-chloro-3-methylphenyl)-6,6-dimethyl-3-(pyridin-4-yl)-6,7-dihydropyrazolo[1,5-a]pyrazin-5(4H)-yl]prop-2-en-1-one]	0.296	0.00561	0.0101
CN(C)C/C=C/C(=O)N1Cc2c(-c3ccncc3)c(-c3ccc(F)cc3)nn2C(C)(C)C1 [Example 213, (2E)-4-(dimethylamino)-1-[2-(4-fluorophenyl)-7,7-dimethyl-3-(pyridin-4-yl)-6,7-dihydropyrazolo[1,5-a]pyrazin-5(4H)-yl]but-2-en-1-one]	0.112	0.000902	0.00327
Cc1cc(-c2nn3c(c2-c2ccncc2)CN(C(=O)/C=C/CN(C)C)CC3(C)C)ccc1Cl [Example 214, (2E)-1-[2-(4-chloro-3-methylphenyl)-7,7-dimethyl-3-(pyridin-4-yl)-6,7-dihydropyrazolo[1,5-a]pyrazin-5(4H)-yl]-4-(dimethylamino)but-2-en-1-one]	0.069	0.000272	0.000654
CN(C)C/C=C/C(=O)N1Cc2c(-c3ccncc3)c(-c3ccc(Cl)cc3)nn2C(C)(C)C1 [Example 215, (2E)-1-[2-(4-chlorophenyl)-7,7-dimethyl-3-(pyridin-4-yl)-6,7-dihydropyrazolo[1,5-a]pyrazin-5(4H)-yl]-4-(dimethylamino)but-2-en-1-one]	0.0417	0.000513	0.0012
CN(C)C/C=C/C(=O)N1Cc2c(-c3ccncc3)c(-c3ccc(F)cc3)nn2CC1(C)C [Example 216, (2E)-4-(dimethylamino)-1-[2-(4-fluorophenyl)-6,6-dimethyl-3-(pyridin-4-yl)-6,7-dihydropyrazolo[1,5-a]pyrazin-5(4H)-yl]but-2-en-1-one]	0.418	0.025	0.164
CN(C)C/C=C/C(=O)N1Cc2c(-c3ccncc3)c(-c3ccc(Cl)cc3)nn2CC1(C)C [Example 217, (2E)-1-[2-(4-chlorophenyl)-6,6-dimethyl-3-(pyridin-4-yl)-6,7-dihydropyrazolo[1,5-a]pyrazin-5(4H)-yl]-4-(dimethylamino)but-2-en-1-one]	0.277	0.0062	0.0598
Cc1cc(-c2nn3c(c2-c2ccncc2)CN(C(=O)/C=C/CN(C)C)C(C)(C)C3)ccc1Cl [Example 218, (2E)-1-[2-(4-chloro-3-methylphenyl)-6,6-dimethyl-3-(pyridin-4-yl)-6,7-dihydropyrazolo[1,5-a]pyrazin-5(4H)-yl]-4-(dimethylamino)but-2-en-1-one]	0.367	0.00699	0.0164
C=CC(=O)N1Cc2c(-c3ccncc3)c(-c3ccc(F)cc3)nn2C(CCO)C1 (stereo not drawn) [Example 223, 1-(2-(4-fluorophenyl)-7-(2-hydroxyethyl)-3-(pyridin-4-yl)-6,7-dihydropyrazolo[1,5-a]pyrazin-5(4H)-yl) prop-2-en-1-one]	0.018	0.000336	0.00125
